Columns and labels:
[1] = test system: antibodies in sera from SARS patients (sera 1a, 1b, 2, 6, 37, 62, London, SARS-yellow, SARS-green); format: binding, human; design: Binding of serum 6 to linear peptides of protein X1 of SARS-CoV Urbani / Binding of serum 37 to linear peptides of protein X1 of SARS-CoV Urbani / Binding of serum 6 to looped/cyclic peptide (PEPSCAN-ELISA) / Binding of serum 37 to looped/cyclic peptide (PEPSCAN-ELISA) / Binding of serum 37 to looped/cyclic peptides of protein X1 of SARS-CoV Urbani / Binding of serum 6 to linear peptides of protein X2 / Binding of serum 37 to linear peptides of protein X2 / Binding of serum 37 to looped/cyclic peptides of protein X2 of SARS-CoV Urbani / Binding of serum 6 to linear peptides of protein M of SARS-CoV Urbani / Binding of serum 37 to linear peptides of protein M of SARS-CoV Urbani / Binding of serum 6 to looped/cyclic peptides of protein M of SARS-CoV Urbani / Binding of serum 37 to looped/cyclic peptides of protein M of SARS-CoV Urbani / Binding of serum 6 to linear peptides of protein X3 of SARS-CoV Urbani / Binding of serum 37 to linear peptides of protein X3 of SARS-CoV Urbani / Binding of serum 37 to looped/cyclic peptides of protein X3 of SARS-CoV Urbani / Binding of serum 6 to linear peptides of protein X4 of SARS-CoV Urbani / Binding of serum 37 to linear peptides of protein X4 of SARS-CoV Urbani / Binding of serum 37 to looped/cyclic peptides of protein X4 of SARS-CoV Urbani / Binding of serum 6 to linear peptides of protein X5 of SARS-CoV Urbani / Binding of serum 37 to linear peptides of protein X5 of SARS-CoV Urbani / Binding of serum 37 to looped/cyclic peptides of protein X5 of SARS-CoV Urbani / Binding of serum 6 to linear peptides of protein N of SARS-CoV Urbani / Binding of serum 37 to linear peptides of protein N of SARS-CoV Urbani / Binding of serum 6 to linear peptide (PEPSCAN-ELISA) / Binding of serum 1a to looped/cyclic peptides of protein N of SARS-CoV Urbani / Binding of serum 1b to looped/cyclic peptides of protein N of SARS-CoV Urbani / Binding of serum 2 to looped/cyclic peptides of protein N of SARS-CoV Urbani / Binding of serum 6 to looped/cyclic peptides of protein N of SARS-CoV Urbani / Binding of serum 37 to looped/cyclic peptides of protein N of SARS-CoV Urbani / Binding of serum 62 to looped/cyclic peptides of protein N of SARS-CoV Urbani / Binding of serum London to looped/cyclic peptides of protein N of SARS-CoV Urbani / Binding of serum SARS-green to looped/cyclic peptides of protein N of SARS-CoV Urbani: unit not given here
[2] = test system: control sera (pooled serum of ten healthy LUMC hospital workers; commercial negative donor pooled serum from the Dutch bloodbank); format: binding, human; design: Binding of Control serum LUMC to linear peptides / Binding of Control serum Blood-bank to linear peptides / Binding of Control serum LUMC to looped peptides / Binding of Control Serum Blood-Bank to Looped peptides / Binding of Control serum LUMC to linear peptides of the protein M of SARS-CoV Urbani / Binding of Control serum Blood-bank to linear peptides of the protein M of SARS-CoV Urbani / Binding of Control serum LUMC to looped peptides of the protein M of SARS-CoV Urbani / Binding of Control Serum Blood-Bank to Looped peptides of the protein M of SARS-CoV Urbani: unit not given here
[3] = test system: rabbit serum obtained by immunizing a rabbit with the SARS-CoV strain Frankfurt 1; format: binding; design: Binding of a rabbit serum to linear peptides / Binding of a rabbit serum to looped peptides / Rabbit serum linear peptides / Rabbit serum looped peptides / Binding of a rabbit serum to linear peptides of protein N of SARS-CoV Urbani (Rabbit serum linear peptides) / Binding of a rabbit serum to looped/cyclic peptides of protein N of SARS-CoV Urbani (Rabbit serum looped peptides): unit not given here

MDLFMRFFTLGSITA
Binding of serum 1a to linear peptides of protein X1 of SARS-CoV Urbani [1]: 0.8
Binding of serum 1a to looped/cyclic peptide (PEPSCAN-ELISA) [1]: 0.5
Binding of serum 1b to linear peptides of protein X1 of SARS-CoV Urbani [1]: 0.7
Binding of serum 1b to looped/cyclic peptide (PEPSCAN-ELISA) [1]: 0.3
Binding of serum 2 to linear peptides of protein X1 of SARS-CoV Urbani [1]: 0.7
Binding of serum 2 to looped/cyclic peptide (PEPSCAN-ELISA) [1]: 0.4
Binding of serum 6 to linear peptides of protein X1 of SARS-CoV Urbani [1]: 0.5
Binding of serum 6 to looped/cyclic peptide (PEPSCAN-ELISA) [1]: 1.0
Binding of serum 37 to linear peptides of protein X1 of SARS-CoV Urbani [1]: 0.7
Binding of serum 37 to looped/cyclic peptide (PEPSCAN-ELISA) [1]: 0.4
Binding of serum 62 to linear peptides of protein X1 of SARS-CoV Urbani [1]: 0.7
Binding of serum 62 to looped/cyclic peptide (PEPSCAN-ELISA) [1]: 0.5
Binding of serum London to linear peptides of protein X1 of SARS-CoV Urbani [1]: 0.3
Binding of serum London to looped/cyclic peptide (PEPSCAN-ELISA) [1]: 0.8
Binding of serum SARS-green to linear peptides of protein X1 of SARS-CoV Urbani [1]: 0.6
Binding of serum SARS-green to looped/cyclic peptide (PEPSCAN-ELISA) [1]: 0.4
Binding of serum SARS-yellow to linear peptides of protein X1 of SARS-CoV Urbani [1]: 0.5
Binding of serum SARS-yellow to looped/cyclic peptide (PEPSCAN-ELISA) [1]: 0.5
Binding of Control Serum Blood-Bank to Looped peptides [2]: 0.6
Binding of Control serum Blood-bank to linear peptides [2]: 0.7
Binding of Control serum LUMC to linear peptides [2]: 0.6
Binding of Control serum LUMC to looped peptides [2]: 0.6
Binding of a rabbit serum to linear peptides [3]: 0.5
Binding of a rabbit serum to looped peptides [3]: 0.5

MESELVIGAVIIRGH
Binding of serum 1a to linear peptides of protein M of SARS-CoV Urbani [1]: 0.8
Binding of serum 1a to looped/cyclic peptides of protein M of SARS-CoV Urbani [1]: 0.7
Binding of serum 1b to linear peptides of protein M of SARS-CoV Urbani [1]: 0.7
Binding of serum 1b to looped/cyclic peptides of protein M of SARS-CoV Urbani [1]: 0.5
Binding of serum 2 to linear peptides of protein M of SARS-CoV Urbani [1]: 0.8
Binding of serum 2 to looped/cyclic peptides of protein M of SARS-CoV Urbani [1]: 0.6
Binding of serum 6 to linear peptides of protein M of SARS-CoV Urbani [1]: 0.6
Binding of serum 6 to looped/cyclic peptides of protein M of SARS-CoV Urbani [1]: 0.7
Binding of serum 37 to linear peptides of protein M of SARS-CoV Urbani [1]: 0.5
Binding of serum 37 to looped/cyclic peptides of protein M of SARS-CoV Urbani [1]: 0.7
Binding of serum 62 to linear peptides of protein M of SARS-CoV Urbani [1]: 0.5
Binding of serum 62 to looped/cyclic peptides of protein M of SARS-CoV Urbani [1]: 0.6
Binding of serum London to linear peptides of protein M of SARS-CoV Urbani [1]: 0.4
Binding of serum London to looped/cyclic peptides of protein M of SARS-CoV Urbani [1]: 0.2
Binding of serum SARS-green to linear peptides of protein M of SARS-CoV Urbani [1]: 0.7
Binding of serum SARS-green to looped/cyclic peptides of protein M of SARS-CoV Urbani [1]: 0.2
Binding of serum SARS-yellow to linear peptides of protein M of SARS-CoV Urbani [1]: 0.2
Binding of serum SARS-yellow to looped/cyclic peptides of protein M of SARS-CoV Urbani [1]: 0.6
Binding of Control Serum Blood-Bank to Looped peptides of the protein M of SARS-CoV Urbani [2]: 0.7
Binding of Control serum Blood-bank to linear peptides of the protein M of SARS-CoV Urbani [2]: 0.8
Binding of Control serum LUMC to linear peptides of the protein M of SARS-CoV Urbani [2]: 0.8
Binding of Control serum LUMC to looped peptides of the protein M of SARS-CoV Urbani [2]: 0.6
Rabbit serum linear peptides [3]: 0.2
Rabbit serum looped peptides [3]: 0.2
